Assay [1] concerns mouse peritoneal macrophages. Nature of the assay: Phagocytosis assay (FITC-labeled E. coli bioparticles). It counts as cell-based. As for the experimental part: Macrophages were seeded into a 96-well plate (2×10^5 cells/well) and were stimulated with IL4 or LPS+IFNγ for 24 h with or without emodin. Phagocytotic activity was measured using a Vybrant Phagocytosis assay kit (Molecular Probes). The medium was removed and the cells were washed with PBS. The fluorescent BioParticle suspension was added to the cells and incubated up to 6 h. After the indicated time, the BioParticle suspension was removed, any extracellular fluorescence was quenched with trypan blue, and the intracellular fluorescence was detected using a Spectramax M5 microplate reader (Molecular Devices, Sunnyvale, Calif.).

Assay [2] relates to mouse peritoneal macrophages. Nature of the assay: Macrophage migration assay toward MCP1 (transwell). It is filed as cell-based. The note with it: LPS/IFNγ or IL4 stimulated, emodin 50 μM, MCP1 20 ng/ml. As for the experimental part:
Macrophages were stimulated with IL4 or LPS+IFNγ for 24 h with or without emodin. The media was then removed and the cells were washed with PBS. The cells were then resuspended in DMEM with scraping and 2×10^5 macrophages were seeded in triplicate into the top chamber of transwell inserts with 8 μm pores (Corning) and place in 24 well plates. Serum free DMEM with 20 ng/ml MCP1 was placed in the bottom of the wells. After 4 h, inserts were fixed in 4% paraformaldehyde for 20 min; the cells in upper inserts were swabbed using cotton buds, and the cells left on the membrane were stained with DAPI (1 μg/ml) for 1 min. The inserts were then cut out, mounted onto slides and imaged under a Nikon Eclipse NI-U fluorescence microscope (Nikon Inc. Melville, N.Y.) at 20× magnification (5 fields/insert). DAPI stained cells were quantified using Nikon NIS-Elements software.

Assay [3] relates to mouse peritoneal macrophages. The assay can be described thus: NO production assay. The note with it: LPS/IFNγ 24 h, emodin 0-50 μM. It counts as cell-based. As for the experimental part: Macrophages were stimulated with LPS+IFNγ for 24 h with various concentrations of emodin (0-50 μM). The culture media was then collected and the NO content was detected using a Nitrite/Nitrate colormetric kit (Sigma-Aldrich) according to the manufacturer's instructions. The assay was read using a Spectramax M5 microplate reader (Molecular Devices, Sunnyvale, Calif.).

The next assay concerns H3K27m3 and H3K27ac. The assay can be described thus: Histone modifications H3K27m3/H3K27ac (western blotting, ChIP assay). It is filed as cell-based, mouse. How it is done: Following stimulation with IL4 or LPS+IFNγ with or without emodin for varying periods, macrophages were lysed with cell signaling lysis buffer (Millipore) for whole cell lysates. Cytoplasmic and nuclear extracts were prepared using the Epiquik Nuclear Extraction kit (Epigentek, Farmingdale, N.Y.). Total protein was separated on 4-20% Tris-glycine pre-cast gels (Pierce) and transferred onto Nitrocellulose membranes (Bio-Rad Life Science, Hercules, Calif.). The membranes were then probed with HRP conjugated secondary antibodies, and signals were detected using Pierce ECL Western Blotting Substrate (Pierce).
Macrophages were stimulated with IL4 or LPS+IFNγ for 24 h with or without emodin. They were then fixed in 1% formaldehyde. Excess formaldehyde was quenched with glycine and the cells were collected in PBS by scraping. The cells were lysed (0.5% IGEPAL, 4 mM HEPES) and the nuclei were resuspended in nuclear lysis buffer (1% SDS, 10 mM EDTA, and 50 mM Tris, pH 8.1). The DNA was sheared by sonication using a Diagnode Bioruptor Pico for 15 cycles of 30 s on/30 s off. Then 10 μg chromatin was diluted 1:10 (0.01% SDS, 1.1% Triton X-100, 1.2 mM EDTA, 16.7 mM Tris-HCl, pH 8.1, 167 mM NaCl) and 2% of the input was removed from each sample and saved for analysis. Anti-H3K27m3 or anti-H3K27ac (Abcam) was added to each sample along with 20 μl of protein A+G magnetic beads (Millipore) and the samples were incubated overnight at 4° C. The beads were washed with low salt, high salt, LiCl, and TE wash buffers sequentially and the DNA was eluted off the beads with Proteinase K at 62° C. for 2 h (elution buffer: 200 mM NaCl, 1% SDS and 50 mM Tris). The DNA was then analyzed by real time PCR.

The test system of another assay is 4T1 cells. Nature of the assay: Cell viability, LDH assay. It is filed as cell-based, mouse. The note with it: emodin 0-100 μM, 24-48 h. How it is done: (§1) Tumor cells (2×10^4 EO771 or 4T1 cells) were seeded into 96 well culture plates in DMEM with 10% FBS. The cells were incubated overnight at 37° C. The medium was then removed, and the cells were washed with phosphate-buffered saline (PBS). DMEM containing varying concentrations of emodin (0-100 μM) was then added to the cells in quadruplicate. Vehicle control contained an equal volume of DMSO. Plates of cells were then incubated for 24-48 h. After an indicated period, the viability of the cells was determined using a Lactate Dehydrogenase (LDH) Cytotoxicity Detection Kit (Clontech Mountain View, Calif.) according to the manufacturer's instructions. Briefly, the supernatant was removed from each well on the plate and placed in a new well on the same plate. An equal volume of cell lysis buffer (2% triton in DMEM) was then added to each well containing the cancer cells, and the cells were incubated at room temperature for 15 min. The reaction mixture was then added to each well (cell lysate plus supernatant) and incubated for 5 min before the stop solution was added. The absorbance was measured at 490 nm on a Spectra Max M5 Microplate Reader (Molecular Devices, Sunnyvale, Calif.). The percent viability was then calculated as the ratio of LDH in the cell lysate to the total amount of LDH in the lysate plus the supernatant. The viability of each group was compared to the control.

The subject of another assay is EO771 cells. The assay can be described thus: Cell viability, LDH assay. The note with it: emodin 0-100 μM, 24-48 h. It counts as cell-based, mouse. As for the experimental part: as §1
Assay [4] has as its system peritoneal macrophages and 4T1 cells. The assay can be described thus: Tumor cell-macrophage adhesion. It is filed as cell-based, mouse. As for the experimental part: Tumor cell monolayers (80-90% confluent) and macrophages were treated with emodin (0-25 μM) overnight. The cells were then washed multiple times with PBS, and fresh SF DMEM was added. Macrophages were resuspended with scraping and 5×10^5 cells were seeded onto the tumor cell monolayers. After 1 h the non-adherent cells were washed away, and the adherent cells were resuspened with Trypsin and mild scraping. The total number of cells was counted, and cells were stained with anti-F4/80 FITC (Biolegend). The cells were analyzed on a Beckman Coulter FC500.

Assay [5] concerns Breast tumor cells from MMTV-PyMT mice. The assay can be described thus: Gene expression in ex vivo breast tumor cells (qPCR). It counts as cell-based, mouse. A general note: Real-time PCR tracks product formation cycle by cycle.

Take `Cc1cc(O)c2c(c1)C(=O)c1cc(O)cc(O)c1C2=O` [emodin]: in assay [1] (IL4 or LPS/IFNγ stimulated macrophages, emodin 50 μM 24 h), the “inhibition of bioparticle uptake” value was approximately 2 fold. In addition, the “phagocytic activity of naïve cells” value in assay [1] (emodin alone, 6 h time point) is on record as “increase phagocytic activity”. For the same compound, the “macrophage migration toward MCP1” value in assay [2] is on record as “significantly reduced”. Further, in assay [3], the NO production result was “dose dependently inhibited”. Besides, in the assay with H3K27m3 and H3K27ac (ChIP assay), the “IL4-induced decrease of H3K27m3 in the promoter of IRF4, Arg1 and YM1 genes” value was “reversed”; the “LPS/IFNγ-induced decrease of H3K27m3 in the promoter of iNOS, TNFα and IL6 genes” value is recorded as “attenuated”; the “induced increase of H3K27ac in promoters (LPS/IFNγ: iNOS, TNFα, IL6; IL4: IRF4, YM1)” value is “suppressed”. Also, the “global expression of H3K27m3 or H3K27ac” value in the assay on H3K27m3 and H3K27ac (western blotting, LPS/IFNγ or IL4, emodin 50 μM 24 h) was “no effect”. In addition, the “concentration from which a slight effect on cell viability starts” value with 4T1 cells is not below 25 µM. Further, in the assay on EO771 cells, the “concentration from which a slight effect on cell viability starts” value is not below 25 µM. In addition, the “adhesion of macrophages to a monolayer of tumor cells” value in assay [4] (emodin treatment of both macrophages and tumor cells) is recorded as “decreased the adhesion even further”. In addition, the “adhesion of macrophages to a monolayer of tumor cells” value in assay [4] (emodin treatment of either macrophages or tumor cells) is “significantly inhibited”. For the same compound, the “expression of CCL2, CSF1, CD90, N-cadherin, vimentin, FoxC2 and KLF4” value in assay [5] is “significantly suppressed”.

(Values after US9795570B2, “Modulation of macrophage phenotype by emodin” (University of South Carolina, priority 2016, dated 2017).)
